From a melting point compilation (Tetko et al.; mined from patent text by program, amines drawn as free bases though some values may be those of a salt) come the findings set out here.

For the compound `COC(=O)CCC(C)C1CCC2C3C(C(C)=O)CC4CC(C(C)=O)CCC4(C)C3C=CC12C` (stereo not given), the melting point is 137 to 139 °C.

For `CO[C@]12C[C@@H](CN3CCC(O)(c4ccc(Cl)cc4)CC3)CN(C)[C@@H]1Cc1c[nH]c3cccc2c13`, the melting point was 144 to 148 °C.

Compound `Cc1cn(-c2cc(NC(=O)c3cccc(Nc4nccc(-c5cccnc5)n4)c3)cc(C(F)(F)F)c2)cn1` had a melting point of 264 to 266 °C.

Turning to `CC(=O)Oc1ccc(C2=NNC(=O)CC2C)cc1` (stereo not given), the melting point was 152 to 153 °C.

`Cn1ncc(/C=C/C(=O)Nc2ccc(Cc3nnn[nH]3)cc2)c1-c1ccc(F)cc1` yielded a melting point of 252 to 253 °C.

For `CCCCCc1cc2cc(O)ccc2c(Oc2ccc(/C=C/C(=O)O)cc2)c1-c1ccccc1`, the melting point lay within 110 to 113 °C.

`ClCc1nn(-c2ccccc2)c2c1CCCC2`: the melting point was 100 °C.

As for `O=C(O)CCCn1nnnc1S`, the melting point fell in the range of 90 to 95 °C.

`CC(=O)C1(C(=O)N[C@H](C)c2ccccc2)CCC1`: the melting point was 57 to 60 °C.

Turning to `CON(Cc1ccc(F)cc1Cl)C(=O)C1=C(O)C(=O)N(C)C1`, the melting point was in the range of 152 to 155 °C.

The compound `Cc1nc(-c2ccc(C(F)(F)F)cc2)sc1CCOc1ccc(CC(=O)O)cc1` displayed a melting point of 128 to 130 °C.

`CC(=O)OCc1cc(Cl)ccc1Sc1ccccc1CN(C)C` showed a melting point of 41 to 44 °C.

Turning to `COC(=O)c1ccc(C2c3[nH]c4ccccc4c3CCN2C(=O)C=Cc2cccc(C(=O)OC)c2)cc1` (stereo not given), the melting point amounted to 182 °C.

Turning to `Nc1ccc2ccc(OCCN3CCOCC3)nc2n1`, the melting point came out at 164 °C.

On to `Cc1nn(-c2ccccn2)c2c1C(=O)CC(C)(C)C2S(=O)(=O)c1ccccc1` (stereo not given), for which the melting point was in the range of 165 to 166 °C.

The compound `CCCNc1nc(N)c2ncn(C3CCCCC3)c2n1` displayed a melting point of 155 to 156 °C.

Regarding `Cc1nc2cc(C34CC5CC(CC(C5)C3)C4)cc(-c3ccc(C=C4SC(=S)NC4=O)cc3)c2o1`, the melting point is above 360 °C.

Turning to `CC1(C)CCC(C)(C)c2c(O)cc(Br)cc21`, the melting point amounted to 93 °C.

Regarding `CCOC(=O)/C=C/c1ccc(/C=C(\C)c2ccc3c(c2)C(C)(C)CCC3(C)C)cc1`, the melting point fell in the range of 126 to 127 °C.

On to `Cc1cc(=O)n2cccc(OCC=Cc3ccccc3)c2n1`, for which the melting point is 154 to 155 °C.

The compound `CC(=O)N1N=C(c2ccc(N)cc2)c2cc(Cl)ccc2CC1C` (stereo not given) yielded a melting point of 187 to 189 °C.

In turn, `Nc1cc(F)cc2c(Cl)ccnc12` displayed a melting point of 98 to 103 °C.

Regarding `COC(=O)c1ccccc1Oc1ccc(S(=O)(=O)NCc2ccnc3ccccc23)cc1`, the melting point was 163 to 166 °C.

`COc1ccc(-c2cc(F)cc3c2OC(CN)C3)c(OC)c1` (stereo not given) had a melting point of 141 to 143 °C.

For the compound `COc1ccc2c(n1)C1(CO2)C(=O)N(Cc2ncccc2C(F)(F)F)c2ccccc21` (stereo not given), the melting point fell in the range of 195 to 198 °C.

`Cc1ccccc1C(=O)Nc1ccc(C(=O)N2CCCC(N(C)C(=O)c3ccccc3)c3ccccc32)cc1` (stereo not given) gave a melting point of 248 to 249 °C.

As to `COC(=O)c1ccc(CSc2nnc(-c3ccc4c(c3)CCO4)o2)cc1`, the melting point lay in the range of 125 to 126 °C.

Compound `Fc1ccc(-c2cc3ncnc(Nc4ccc5[nH]ccc5c4)c3s2)cc1Cl` gave a melting point of 175 to 183 °C.

Compound `O=C(Nc1cc(Cl)cc(Cl)c1)c1cc(I)ccc1O` registered a melting point of 244 to 245 °C.

In the case of `O=C1CCCN1c1ccc(F)cc1F`, the melting point is 95 to 97 °C.

For the compound `CC(C)(C)OCC1CN(c2ccc3cc(OCc4ccccc4)ccc3c2)C(=O)O1` (stereo not given), the melting point turned out to be 152 °C.

`O=C(Oc1ccc(Cl)cc1Cn1nc(-c2ccc(C(F)(F)F)cc2)oc1=O)c1ccc(CCl)cc1` had a melting point of 142 to 144 °C.

As for `CNC(=S)Nc1nc(C(C)c2ccc(-c3ccccc3)c(F)c2)cs1` (stereo not given), the melting point was in the range of 180 to 181 °C.

`CC(C)(C)OC(=O)NC(Cc1ccccc1)CC(O)C(Cc1ccccc1)NC(=O)OCc1cncs1` (stereo not given) had a melting point of 118 to 120 °C.

Take `CNC(=O)c1ccc(CN2CCN(c3nc(C)c(-c4cc(C)n[nH]4)s3)C2=O)cc1`: the melting point lay in the range of 236 to 238 °C.

`CCCc1c(C(=O)NCc2ccc(-c3ccc(OCC#N)c(Br)c3)cc2)cnn1-c1ccccc1`: the melting point lay within 102 to 109 °C.

The compound `O=C(O)CC1CCCc2c1n(Cc1ccc(Cl)cc1)c1c(F)cc(F)cc21` (stereo not given) showed a melting point of 130 to 131 °C.

Regarding `CCO[C@@H](Cc1ccc2oc(Cc3nc(-c4ccccc4)oc3C)cc2c1)C(=O)O`, the melting point came to 129 °C.

In turn, `CCCCC1=NC2(CCCC2)C(=O)N1Cc1ccc(-c2ccccc2S(=O)(=O)Nc2onc(C)c2C)c(OCC(C)C)c1` gave a melting point of 58 to 61 °C.

Turning to `CC(=O)C(Cc1nsc2ccc(-n3c(=O)cc(C(F)(F)F)n(C)c3=O)cc12)C(=O)O` (stereo not given), the melting point lay within 191 to 193 °C.

Turning to `O=[N+]([O-])c1cc(O)c(Br)cc1F`, the melting point fell in the range of 124 to 126 °C.

Compound `O=C1CC[C@H](CC(c2ccc(S(=O)(=O)C3CC3)cc2)c2ccc(-c3nccs3)[nH]2)C1` (stereo not given in full) showed a melting point of 165 to 167 °C.

In the case of `O=C(Nc1ccc(CO)cc1)C1=Cc2cc(-c3ccccc3)ccc2CC1`, the melting point was in the range of 207 to 210 °C.

Consider `COCCc1cc(N2CCNCC2)n2nc(SC)c(S(=O)(=O)c3ccccc3)c2n1`, for which the melting point is 170 to 171 °C.

In the case of `O=C(O)C(OCc1ccc(Cl)cc1)(C(F)(F)F)C(F)(F)F`, the melting point lay in the range of 98 to 99 °C.

In turn, `CC(=O)OC1OC(COC(=O)c2ccccc2)CC(OC(=O)c2ccccc2)C1OC(=O)c1ccccc1` (stereo not given) yielded a melting point of 123 to 124 °C.

Consider `O=C(Nc1ccc(F)cc1)c1cccc([N+](=O)[O-])c1`, for which the melting point fell in the range of 167 to 168 °C.

For the compound `O=C(O)c1cccc(Cn2ccn(C3CCc4ccccc4C3)c2=S)c1` (stereo not given), the melting point was in the range of 252 to 254 °C.

In turn, `CCOc1nc(=O)n(-c2cc(C(=O)OC)c(Cl)cc2F)c(=O)n1C` yielded a melting point of 45 to 47 °C.

Consider `C#CCOc1cc(F)ccc1[N+](=O)[O-]`, for which the melting point was in the range of 38 to 39 °C.

`O=C(NC1CCn2c(CCc3ccccc3)nc3cccc1c32)c1ccccn1` (stereo not given): the melting point was found to be 173 °C.

Take `COc1ccc(C=CC(=O)c2c(OC)cc(OC)cc2OC(=O)CCCC(=O)O)cc1`: the melting point fell in the range of 131 to 132 °C.

For `CCCn1nc2c(N)nc3ccccc3c2c1CC(C)(C)C#N`, the melting point lay within 248 to 250 °C.

`COc1cccc2c1CCN([C@@H]1CN3CCC1CC3)C2=O` came in with a melting point above 290 °C.

Consider `Cc1nc2c(C#N)c(C)nn2c(Cl)c1CCCl`, for which the melting point fell in the range of 113 to 115 °C.

`O=C(CCCCCCCCc1ccccc1)NO`: the melting point is 75 to 77 °C.

The compound `COc1ccc(CC(=O)NC(NC(=NC#N)Nc2cc(Cl)ccc2F)C(C)(C)C)cc1OC` (stereo not given) displayed a melting point of 187 to 188 °C.

Compound `O=C1Cc2ccnc(N3CCNCC3)c2N1` showed a melting point of 200 to 204 °C.

Take `Cc1n[nH]c2cc(-c3nn(C(C)c4oc5ccc(F)cc5c(=O)c4-c4cccc(F)c4)c4ncnc(N)c34)ccc12` (stereo not given): the melting point lay in the range of 234 to 236 °C.

In turn, `CCOC(=O)c1cccc(C(=O)c2cccnc2-c2ccc(S(C)(=O)=O)cc2)c1` yielded a melting point of 125 to 132 °C.

`CSc1nc(NC2CCCCC2)c2ccnc-2[nH]1`: the melting point was 189 to 190 °C.

Turning to `CC(C)(C)OC(=O)C1C(C=CC(=O)O)C1(C)C` (stereo not given), the melting point came out at 94 °C.

With `COC(=O)c1cccc(OCCCNC(=O)C[C@H]2O[C@H](c3cccc(OC)c3OC)c3cc(Cl)ccc3N(CC(C)(C)CO)C2=O)c1`, the melting point was in the range of 99 to 100 °C.

Turning to `O=C(NCc1ccc2c(c1)OCO2)Nc1cc(N2CC(c3ccccc3)CC2=O)ccn1` (stereo not given), the melting point was 185 to 188 °C.

`O=C(NCCc1ccc(O)cc1)OCc1ccccc1`: the melting point lay in the range of 96 to 98 °C.

Turning to `N#Cc1cnc2cc(/C=C/CCCN3CCOCC3)ccc2c1Nc1ccc(Cl)cc1Cl`, the melting point fell in the range of 142 to 144 °C.

The compound `NS(=O)(=O)c1ccc(-n2nc(C(F)(F)F)cc2-c2ccc(-c3cscn3)cc2)cc1F` registered a melting point of 168 to 170 °C.

Consider `Fc1cccc(F)c1-c1c(Cl)nc(Cl)n1-c1ccc(Cl)cc1`, for which the melting point is 123 to 125 °C.

In turn, `CCCCOC(C(=O)Oc1ccc(C(=O)O)cc1)c1ccc2c(c1)C(C)(C)CCC2(C)C` (racemic) returned a melting point of 129 to 130 °C.

`NC(=S)Nc1cc(F)ccc1-c1ccccc1` had a melting point of 185 to 187 °C.

Turning to `CCOC(=O)/C=C/c1cnn(Cc2ccccc2)c1-c1ccccc1`, the melting point lay within 62 to 63 °C.

As to `COc1ccc(-n2nc(OC(C)C)cc2-c2ccc(OCCNS(C)(=O)=O)cc2)cc1`, the melting point was found to be 168 °C.

Take `CC(=O)SC(CC(=O)c1ccc(Oc2ccc(C(C)C)cc2)cc1)C(=O)O` (stereo not given): the melting point fell in the range of 110 to 112 °C.

Compound `O=c1nc(-c2ccc(Br)cc2)c2c(=O)nc(-c3ccc(Br)cc3)c1=2` showed a melting point above 400 °C.

Turning to `COc1cc(C(=O)NS(=O)(=O)c2ccccc2Cl)ccc1Cn1cc(CCC(=O)N(C)C)c2ccc(CCC(=O)N(C)C)cc21`, the melting point was in the range of 134 to 137 °C.

Compound `O=S(=O)(Nc1ccc(OCc2ccc3ccccc3n2)cc1)c1ccc(Cl)cc1` registered a melting point of 125 °C.

As for `CNC(=S)C1(c2cccnc2)CCCCCC1=O` (stereo not given), the melting point lay in the range of 144 to 146 °C.

`Cc1ccc(-c2c(CNC(=O)OC(C)(C)C)n(CC(C)C)c(=O)c3ccc(/C=C/C(N)=O)cc23)cc1` came in with a melting point of 152 to 154 °C.

Consider `O=c1c(-c2ccccc2)cc(C2=NCCO2)c2n1CCc1ccsc1-2`, for which the melting point was in the range of 211 to 212 °C.

As to `CC(=O)NCC1CN(c2ccc(N3CCN(C(=O)COC(C)=O)CC3)c(F)c2)C(=O)O1` (stereo not given), the melting point lay in the range of 199 to 201 °C.

`CCCc1c(Cc2ccccc2C(=O)O)cccc1OCCCOc1cc(O)c(-c2ccc(F)cc2)cc1CC` registered a melting point of 150 to 151 °C.

Regarding `O=C(O)CCC/C=C\[C@@H]1C[C@@H](NS(=O)(=O)c2ccccc2)CN1S(=O)(=O)c1ccc(Cl)cc1`, the melting point lay within 121 to 123 °C.

`COc1nc(I)cc(C(O)Cc2ccccc2)c1C` (stereo not given) yielded a melting point of 69 to 70 °C.

`CC(C)(C)C(=O)Nc1cc2c(O)n(I)cnc-2n1` gave a melting point above 240 °C.

With `N#CC1C(=O)NC(=O)C(C(=O)OCc2ccccc2)C12CCCCC2` (stereo not given), the melting point fell in the range of 153 to 156 °C.
